Source: the supplement of paper PMC10307832

These cell lines were tested with O=C(NC1CCNCC1)c1n[nH]cc1NC(=O)c1c(Cl)cccc1Cl [AT-7519] + N=C(N)NC(=N)NCCc1ccccc1 [Phenformin] (partner 250 µM) (assay: relative viability (nuclei count vs DMSO), 5 days (fraction); higher = more cells survive). Conditions: first compound 0.01 µM.
Procedure, shortened: (§1)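 Five library-drug doses in √10 steps were combined with a fixed anchor-drug dose, or a single drug was given alone, by pin tool to lung cancer cell lines in 1536-well plates the day after seeding. Nuclei were stained and counted after 5 days. Relative viability is the nuclei count in treated wells over that in vehicle wells, taken as the median of duplicate plates.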

Row | Cell Line | relative viability
1 | RERF-LC-KJ | 0.456
2 | ABC-1 | 0.245
3 | NCI-H358 | 0.342
4 | NCI-H650 | 0.492
5 | PC-3 [JPC-3] | 0.471

Same assay, conditions: first compound 0.03162 µM

Row | Cell Line | relative viability
6 | RERF-LC-KJ | 0.418
7 | ABC-1 | 0.242
8 | NCI-H358 | 0.313
9 | NCI-H650 | 0.465
10 | PC-3 [JPC-3] | 0.474

Same assay, conditions: first compound 0.3162 µM

Row | Cell Line | relative viability
11 | RERF-LC-KJ | 0.388
12 | ABC-1 | 0.234
13 | NCI-H358 | 0.205
14 | NCI-H650 | 0.49
15 | PC-3 [JPC-3] | 0.45

Same assay, conditions: first compound 1 µM

Row | Cell Line | relative viability
16 | RERF-LC-KJ | 0.217
17 | ABC-1 | 0.164
18 | NCI-H358 | 0.087
19 | NCI-H650 | 0.421
20 | PC-3 [JPC-3] | 0.484

What follows are cell lines tested with C1=CC2=C(C=C(C(=C2N=C1)O)N=NC3=CC4=C(C=C3)C=C(C=C4)S(=O)(=O)O)S(=O)(=O)O + N=C(N)NC(=N)NCCc1ccccc1 [Phenformin] (partner 250 µM) in the same assay as above. Conditions: first compound 0.08 µM.
Procedure, shortened: as §1

Row | Cell Line | relative viability
21 | RERF-LC-KJ | 0.439
22 | ABC-1 | 0.236
23 | NCI-H358 | 0.35
24 | NCI-H650 | 0.413
25 | PC-3 [JPC-3] | 0.474

Same assay, conditions: first compound 0.253 µM

Row | Cell Line | relative viability
26 | RERF-LC-KJ | 0.39
27 | ABC-1 | 0.245
28 | NCI-H358 | 0.35
29 | NCI-H650 | 0.42
30 | PC-3 [JPC-3] | 0.473

Same assay, conditions: first compound 0.8 µM

Row | Cell Line | relative viability
31 | RERF-LC-KJ | 0.435
32 | ABC-1 | 0.236
33 | NCI-H358 | 0.339
34 | NCI-H650 | 0.437
35 | PC-3 [JPC-3] | 0.477

Same assay, conditions: first compound 2.53 µM

Row | Cell Line | relative viability
36 | RERF-LC-KJ | 0.439
37 | ABC-1 | 0.237
38 | NCI-H358 | 0.345
39 | NCI-H650 | 0.49
40 | PC-3 [JPC-3] | 0.478

Same assay, conditions: first compound 8 µM

Row | Cell Line | relative viability
41 | RERF-LC-KJ | 0.43
42 | ABC-1 | 0.245
43 | NCI-H358 | 0.327
44 | NCI-H650 | 0.309
45 | PC-3 [JPC-3] | 0.494

These cell lines were tested with C1=CC2=C(C=C(C(=C2N=C1)O)N=NC3=CC4=C(C=C3)C=C(C=C4)S(=O)(=O)O)S(=O)(=O)O + COc1cccc2cc(-c3nc([C@H]4CC[C@H](C(=O)O)CC4)n4ncnc(N)c34)[nH]c12 [OSI-027] (partner 0.5 µM) in the same assay as above. Conditions: first compound 0.08 µM.
Procedure, shortened: as §1

Row | Cell Line | relative viability
46 | RERF-LC-KJ | 0.664
47 | ABC-1 | 0.435
48 | NCI-H358 | 0.94
49 | NCI-H650 | 0.546
50 | PC-3 [JPC-3] | 0.815

Same assay, conditions: first compound 0.253 µM

Row | Cell Line | relative viability
51 | RERF-LC-KJ | 0.624
52 | ABC-1 | 0.336
53 | NCI-H358 | 0.738
54 | NCI-H650 | 0.511
55 | PC-3 [JPC-3] | 0.71

Same assay, conditions: first compound 0.8 µM

Row | Cell Line | relative viability
56 | RERF-LC-KJ | 0.593
57 | ABC-1 | 0.463
58 | NCI-H358 | 0.746
59 | NCI-H650 | 0.499
60 | PC-3 [JPC-3] | 0.791

Same assay, conditions: first compound 2.53 µM

Row | Cell Line | relative viability
61 | RERF-LC-KJ | 0.608
62 | ABC-1 | 0.499
63 | NCI-H358 | 0.772
64 | NCI-H650 | 0.494
65 | PC-3 [JPC-3] | 0.778

Same assay, conditions: first compound 8 µM

Row | Cell Line | relative viability
66 | RERF-LC-KJ | 0.588
67 | ABC-1 | 0.64
68 | NCI-H358 | 0.847
69 | NCI-H650 | 0.293
70 | PC-3 [JPC-3] | 0.769

What follows are cell lines tested with C1=CC2=C(C=C(C(=C2N=C1)O)N=NC3=CC4=C(C=C3)C=C(C=C4)S(=O)(=O)O)S(=O)(=O)O + CC(=O)c1c(C)c2cnc(Nc3ccc(N4CCNCC4)cn3)nc2n(C2CCCC2)c1=O [Palbociclib] (partner 0.5 µM) in the same assay as above. Conditions: first compound 0.08 µM.
Procedure, shortened: as §1

Row | Cell Line | relative viability
71 | RERF-LC-KJ | 1.31
72 | ABC-1 | 0.756
73 | NCI-H358 | 0.138
74 | NCI-H650 | 0.35
75 | PC-3 [JPC-3] | 0.572

Same assay, conditions: first compound 0.253 µM

Row | Cell Line | relative viability
76 | RERF-LC-KJ | 1.13
77 | ABC-1 | 0.647
78 | NCI-H358 | 0.134
79 | NCI-H650 | 0.357
80 | PC-3 [JPC-3] | 0.566

Same assay, conditions: first compound 0.8 µM

Row | Cell Line | relative viability
81 | RERF-LC-KJ | 1.11
82 | ABC-1 | 0.659
83 | NCI-H358 | 0.166
84 | NCI-H650 | 0.335
85 | PC-3 [JPC-3] | 0.528

Same assay, conditions: first compound 2.53 µM

Row | Cell Line | relative viability
86 | RERF-LC-KJ | 1.06
87 | ABC-1 | 0.91
88 | NCI-H358 | 0.134
89 | NCI-H650 | 0.317
90 | PC-3 [JPC-3] | 0.577

Same assay, conditions: first compound 8 µM

Row | Cell Line | relative viability
91 | RERF-LC-KJ | 1.01
92 | ABC-1 | 0.761
93 | NCI-H358 | 0.135
94 | NCI-H650 | 0.335
95 | PC-3 [JPC-3] | 0.565
